Data published in patent publication US20140005181A1, “SMALL MOLECULE ANTAGONISTS OF THE APELIN RECEPTOR FOR THE TREATMENT OF DISEASE” (Sanford-Burnham Medical Research Institute, priority 2012, published 2014).
Where “and” joins values, the source holds several entries; their conditions need not be identical. Equal entries are not always repeated. Where two headings read alike, the source gives them in different places.

Columns and labels:
APJ = target: T1, APJ (Homo sapiens, UniProt P35414); experiment: APJ receptor internalization assay; format: cell-based; settings: fixed apelin-13 6.23 nM
T1 sequence (P35414 1-380): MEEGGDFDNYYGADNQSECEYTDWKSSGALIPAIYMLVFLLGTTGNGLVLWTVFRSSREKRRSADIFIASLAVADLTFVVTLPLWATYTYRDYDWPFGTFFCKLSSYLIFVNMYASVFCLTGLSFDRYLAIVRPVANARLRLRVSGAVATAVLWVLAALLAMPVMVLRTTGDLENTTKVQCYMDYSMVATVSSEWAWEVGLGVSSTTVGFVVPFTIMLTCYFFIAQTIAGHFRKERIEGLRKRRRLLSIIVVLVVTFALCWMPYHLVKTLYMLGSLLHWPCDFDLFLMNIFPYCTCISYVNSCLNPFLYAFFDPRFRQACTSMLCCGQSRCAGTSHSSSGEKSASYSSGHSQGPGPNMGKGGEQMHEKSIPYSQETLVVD
Experimental: This graph depicts the mean percent inhibition (±SEM) of apelin-13 mediated receptor internalization. Representative of an experiment that was repeated three times with each data point performed in triplicate. Curve fit analysis was performed using nonlinear regression with a 4-point logistic fit (GraphPad Prism5).

PAMPA permeability = format: in vitro ADME; settings: for Papp: PAMPA, read-out: PAMPA Pe
Experimental: The PAMPA (Parallel Artificial Membrane Permeability Assay) assay is used as an in vitro model of passive, transcellular permeability. An artificial membrane immobilized on a filter is placed between a donor and acceptor compartment. At the start of the test, drug is introduced in the donor compartment. Following the permeation period, the concentration of drug in the donor and acceptor compartments is measured using UV spectroscopy.

Plasma stability, human = format: in vitro ADME; settings: Plasma:1x PBS pH 7.4 1:1, 3 hrs
[1] = Stability in 1x PBS pH 7.4 (plasma stability assay); format: physicochemical; settings: 1x PBS pH 7.4, 3 hrs
kappa opioid receptor = target: T2, kappa opioid receptor (Homo sapiens, UniProt P41145); experiment: PDSP GPCR binding assay panel
T2 construct: Psychoactive Drug Screening Program (PDSP), University of North Carolina

[2] = test system: benzodiazepinone receptors; experiment: PDSP GPCR binding assay panel
[3] = Hepatic toxicity / cytotoxicity; settings: human, hepatocytes
human hepatocytes = experiment: Hepatic toxicity / cytotoxicity; settings: Table 1
[4] = Hepatic microsome stability, human
[5] = Hepatic microsome stability, mouse

T2 sequence (P41145 whole entry): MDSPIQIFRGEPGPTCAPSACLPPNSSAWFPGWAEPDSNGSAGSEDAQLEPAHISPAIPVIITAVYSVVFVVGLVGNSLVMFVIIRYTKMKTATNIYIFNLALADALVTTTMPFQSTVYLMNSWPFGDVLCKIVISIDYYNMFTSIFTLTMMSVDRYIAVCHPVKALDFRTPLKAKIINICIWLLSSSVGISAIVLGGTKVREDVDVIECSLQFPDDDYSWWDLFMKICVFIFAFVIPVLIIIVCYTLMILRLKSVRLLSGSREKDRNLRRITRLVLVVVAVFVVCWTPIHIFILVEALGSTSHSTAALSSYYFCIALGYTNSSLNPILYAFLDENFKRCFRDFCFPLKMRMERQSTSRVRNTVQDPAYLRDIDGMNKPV

O=C(Oc1coc(CSc2ncccn2)cc1=O)c1ccc([N+](=O)[O-])cc1 [Compound 6, 4-OXO-6-((PYRIMIDIN-2-YLTHIO)METHYL)-4H-PYRAN-3-YL-4-NITROBENZOATE]
antagonism of apelin-13 induced APJ receptor internalization (APJ): antagonized the ability of apelin-13 to induce APJ receptor internalization
PAMPA Pe (×10^−6 cm/s) (PAMPA permeability; Donor pH 7.4, Acceptor pH 7.4): 271 ×10^−6 cm/s
Papp (PAMPA permeability; Donor pH 5.0, Acceptor pH 7.4): 195 ×10⁻⁶ cm/s
Papp (PAMPA permeability; Donor pH 6.2, Acceptor pH 7.4): 240 ×10⁻⁶ cm/s
Permeability (PAMPA) pH 7.4 (PAMPA permeability; Table 1, pH 7.4): 271.0 × 10^−6 cm/s
Plasma Stability (% Remaining @3 hrs) (Plasma stability, human): 0.26%
Plasma Stability (% Remaining @3 hrs), 1x PBS pH 7.4 ([1]; first value (Human position)): 46.97%
Plasma Stability (% Remaining @3 hrs), 1x PBS pH 7.4 ([1]; second value (Mouse position)): 42.18%
binding activity at kappa opioid receptor (kappa opioid receptor): significant activity
binding activity at benzodiazepinone receptors [2]: significant activity
solubility (Aqueous solubility; 1x PBS, pH 7.4, aqueous buffer): 3.6 µg/mL and 9.3 µM
Aqueous Solubility pH 7.4 (Aqueous solubility; Table 1, pH 7.4): 25.5 μg/mL
solubility (Aqueous solubility; aqueous media, pH 5, aqueous buffer): 3 µg/mL and 7.8 µM
solubility (Aqueous solubility; aqueous media, pH 6.2, aqueous buffer): 3.6 µg/mL and 9.3 µM
solubility (Aqueous solubility; aqueous media, pH 7.4, aqueous buffer): 9.8 µg/mL and 25 µM
Plasma Protein Binding (mouse) (Plasma protein binding; mouse): 99.1%
detection in the plasma protein binding assay (Plasma protein binding; species not given, 18 h incubation): undetectable
Plasma Stability (% Remaining @3 hrs) (Plasma stability, mouse; Mouse, Plasma:1x PBS pH 7.4 1:1, 3 hrs): 0.88%
Plasma Stability (Plasma stability, mouse; Table 1, species and matrix not given): 42.2%
CC50 [3]: > 50 µM
Cytotoxicity (human hepatocytes): >50 µM
Hepatic Microsome Stability Human ([4]; Human): 4.19
% remaining at 60 min in human liver homogenates ([4]; human, 60 min): 4.2%
Hepatic Microsome Stability ([5]; Table 1, species not given, equals the mouse value): 4.9%
Hepatic Microsome Stability Mouse ([5]; mouse): 4.89
% remaining at 60 min in mouse liver homogenates ([5]; mouse, 60 min): 4.9%
